Measured values taken from article PMC8262977, “A Dual-Specificity Inhibitor Targets Polyphosphate Kinase 1 and 2 Enzymes To Attenuate Virulence of Pseudomonas aeruginosa” (mBio, 2021).

Columns and labels:
P. aeruginosa PPK1 = target: T1, P. aeruginosa PPK1 (Pseudomonas aeruginosa, UniProt P0DP44); test: PPK1 polyP synthesis from ATP, toluidine blue detection; assay type: biochemical
T1 construct: His tag (cleaved yes); made in house
Experimental: Compounds were synthesized as outlined in Text S1. Compounds were dissolved in DMSO to make 10 mM stocks and added to a 200 μM final concentration for initial screening. The screen for PPK1 inhibitors was conducted by measuring polyP synthesis activity as described previously ([12]), with the exception of the polyP detection method (see Text S1). […] One-hundred-microliter reaction mixtures were incubated at 37°C for 30 min, after which time 50-μl aliquots were withdrawn and added to 1,000 μl of 6-mg/liter toluidine blue dissolved in 40 mM acetic acid to quench the reaction and quantify polyP ([27]). The A630/530 nm ratio was then recorded, and the values obtained were corrected by subtracting the corresponding blanks (all ingredients except enzyme). The amount of polyP synthesized was calculated using a standard curve (Fig. S1A). Any compounds showing 50% or greater reduction in activity relative to the DMSO control were subjected to further IC50 analysis.
All IC50 and kinetic assay mixtures contained equimolar amounts (275 nM) of PPK to ensure valid comparison between different enzymes. PolyP synthesis activity (for PPK1 and PPK2B) was assayed using the reaction buffer and conditions described above. ATP concentration was varied as indicated for kinetic experiments. Curves were fit using GraphPad Prism V9.

P. aeruginosa PA14 = test: Pyocyanin quantification (absorbance at 520 nm); assay type: cell-based, Pseudomonas aeruginosa
Experimental: Fifty-milliliter P. aeruginosa cultures in 2.5% (wt/vol) LB (Miller; Bioshop) were grown to stationary phase in 125-ml Erlenmeyer flasks with 180-rpm shaking at 37°C for 18 h. Cultures were centrifuged at 18,000 rpm for 30 min to clarify the supernatant, which was then filter sterilized. Pyoverdine was quantified spectrophotometrically at 403 nm as described previously ([55]). Pyocyanin was extracted via chloroform and treated with HCl to yield a red product that was quantified at 520 nm ([55]). To account for any colorimetric interference by inhibitors, cell-free blank readings were subtracted from each sample.

P. aeruginosa [1] = test: Antibiotic synergy in the C. elegans LK model; assay type: in vivo, Caenorhabditis elegans; conditions: for protection of C. elegans in combination with antibiotic: LK assay
Experimental: Assessment of antibiotic synergy in the C. elegans model was adapted from previously described protocols ([25]). Briefly, glp-4 C. elegans worms were incubated at 25°C with P. aeruginosa and the indicated amount of gallein or DMSO in LK medium as described above. After 24 h, antibiotics were added. After another 24 h, C. elegans survival was scored as described above.

P. aeruginosa [2] = test: microbe, parasite or virus in culture; assay type: cell-based, Pseudomonas aeruginosa; conditions: 100 μM gallein, LK medium

T1 sequence (P0DP44 whole entry): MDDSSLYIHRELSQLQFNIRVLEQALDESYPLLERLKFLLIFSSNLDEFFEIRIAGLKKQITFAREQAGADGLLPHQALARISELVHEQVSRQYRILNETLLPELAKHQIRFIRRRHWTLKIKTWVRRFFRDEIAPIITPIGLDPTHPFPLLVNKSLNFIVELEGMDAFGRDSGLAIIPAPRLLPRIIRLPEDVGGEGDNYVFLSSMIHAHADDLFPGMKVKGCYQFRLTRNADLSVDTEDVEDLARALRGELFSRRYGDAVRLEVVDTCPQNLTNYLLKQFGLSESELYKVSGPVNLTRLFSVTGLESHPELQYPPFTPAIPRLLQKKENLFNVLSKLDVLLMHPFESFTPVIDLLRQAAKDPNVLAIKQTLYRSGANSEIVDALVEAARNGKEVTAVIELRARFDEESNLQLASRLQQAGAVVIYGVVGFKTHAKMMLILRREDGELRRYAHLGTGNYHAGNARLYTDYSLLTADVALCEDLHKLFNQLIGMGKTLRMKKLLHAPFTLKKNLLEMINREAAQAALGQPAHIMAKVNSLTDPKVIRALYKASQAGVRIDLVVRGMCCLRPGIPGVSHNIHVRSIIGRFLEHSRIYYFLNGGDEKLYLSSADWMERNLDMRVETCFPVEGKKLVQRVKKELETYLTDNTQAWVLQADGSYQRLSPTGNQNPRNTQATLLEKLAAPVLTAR

SMILES: O=C1OC2(c3ccccc31)c1ccc(O)c(O)c1Oc1c2ccc(O)c1O [RT4 (gallein), gallein]
- PPK1 activity in the absence of ATP regeneration (P. aeruginosa PPK1; no creatine kinase/creatine phosphate, low-micromolar gallein): reduced both PPK1 activity rate and equilibrium polyP levels
- IC50 (P. aeruginosa PPK1; polyP synthesis from ATP, 275 nM enzyme): 17 ± 1 µM
- pyocyanin production (P. aeruginosa PA14; WT, Δppk1 and Δppk2 strains): reproduced the marked pyoverdine and pyocyanin defects observed in the ΔpolyP strain
- Pyocyanin, Mean Diff. (P. aeruginosa PA14; WT: DMSO control vs 100 µM gallein): 0.2097
- pyocyanin production (P. aeruginosa PA14; ΔpolyP strain): no significant decrease of either toxin
- Pyocyanin, Mean Diff. (P. aeruginosa PA14; ∆ppk1, 2a, 2b, 2c: DMSO control vs 100 µM gallein): 0.07567
- Pyocyanin, Mean Diff. (P. aeruginosa PA14; ∆ppk1: DMSO control vs 100 µM gallein): 0.08867
- Pyocyanin, Mean Diff. (P. aeruginosa PA14; ∆ppk2a, 2b, 2c: DMSO control vs 100 µM gallein): 0.2097
- C. elegans antibiotic synergy, Mean Diff. (P. aeruginosa [1]; Cipro (0.75 µg/mL) DMSO vs Cipro (0.75 µg/mL) + 100 µM gallein): -47.1
- protection of C. elegans in combination with antibiotic (P. aeruginosa [1]; in combination with ciprofloxacin): achieved greater protection of C. elegans than did gallein or antibiotics alone
- protection of C. elegans in combination with antibiotic (P. aeruginosa [1]; in combination with tetracycline): achieved greater protection of C. elegans than did gallein or antibiotics alone
- C. elegans antibiotic synergy, Mean Diff. (P. aeruginosa [1]; No antibiotic DMSO vs Cipro (0.75 µg/mL) + 100 µM gallein): -35.08
- C. elegans antibiotic synergy, Mean Diff. (P. aeruginosa [1]; No antibiotic DMSO vs No antibiotic + 100 µM gallein): -16.19
- C. elegans antibiotic synergy, Mean Diff. (P. aeruginosa [1]; No antibiotic DMSO vs Tet (10 µg/mL) + 100 µM gallein): -38.97
- C. elegans antibiotic synergy, Mean Diff. (P. aeruginosa [1]; Tet (10 µg/mL) DMSO vs Tet (10 µg/mL) + 100 µM gallein): -49.51
- effect on the MIC of tetracycline or ciprofloxacin (P. aeruginosa [2]): did not alter the MIC
